# Reference: patent US10202349B2, “Asymmetric bis-acridines with antitumour activity and their uses” (POLITECHNIKA GDAŃSKA, priority 2015, dated 2019)
# Legend:
# PANC 1 = experiment: Anti-neoplasmic activity against xenograft in hairless mice; assay type: in vivo
# Method: (§1) For this, we selected 26 bis-acridines, mainly on the basis of the cytotoxic activity. We performed 34 series of experiments evaluating the anti-neoplasmic activity on xenografts in hairless mice against eleven neoplasms of human origin from the determination of the cytotoxic activity of bis-acridines (table 4). The tumours were injected subcutaneously to hairless mice of 5-weeks, female Crl:Nu-Foxnlnu, at a rate of 5×10^6 cells per mouse. After attaining a tumour of about 100 mm^3 or 200 mm^3 in depending on the neoplasm and its take this was 8 or even 30 days, and began therapy. On the day therapy was initiated, we randomised the animals and divided them into groups. Test groups were from 6 to 8 animals, and controls had from 8 to 14 animals. Each compound was tested at three differentiated doses.
# (§2) The preparations were administered intravenously (i.v.) twice weekly for 4 weeks (thrice weekly for rapidly growing neoplasms). In several series, we used intraperitoneally (i.p.) administration in the same scheme. […] The therapeutic efficacy of the tested formulations was evaluated by measuring tumour size (length and width measurements of the tumour on the basis of the calculated tumour volume). Tumours were measured twice weekly for a period of about 30 days for fast-growing neoplasms, as well as about 60 days for the slow-growing neoplasms. The tumour volume in the treated groups compared with the control group. On this basis, inhibition of tumour growth was calculated using the following formula: Tumour growth inhibition TGI [%]=100−(ΔVT/ΔVC×100) Where ΔVT—is mean the tumour volume in animals in the group treated at the given day of treatment, minus the mean tumour volume in animals at the date of commencement of therapy. ΔVC is mean tumour volume in animals in the control group on a given day of treatment minus the average tumour volume of animals on the date of commencement of therapy. The results of the tests of anti-neoplasmic activity conducted in xenografts of human-origin neoplasms in mice are shown in Table 5.
# (§3) The result above was accepted only in the case that the dose administered in all animals or more than half of the animals that survived to the end of the experiment. In addition, the evaluation was the day that the administration of the preparation was already completed: for the fast-growing neoplasms (eg. HCT116) this was in the days from 15 to 26, while for slow-growing neoplasms (eg. Panc 1) on a day from 34 to 60. […] In addition, the maximum inhibition of neoplasms could be identified in the day, in which there were no factors that could change the value TGI value.
# (§4) Such factors may include: a significant decrease in body weight, the appearance of observable toxaemia, excessive rate of tumour growth: tumours in excess of 2000 mm^3 and all animals alive on that day.
# HCT 116 = experiment: as above; assay type: in vivo
# Method: as §1, §2, §3, §4
# MDA MB 231 = experiment: as above; assay type: in vivo
# Method: as §1, §2, §3, §4
# HT-29 = experiment: Cytotoxic activity in vitro, SRB; assay type: cell-based, human
# Method: (§5) Cytotoxic activity tests in-vitro. A measure of the cytotoxic activity of bis-acridines are the EC50 (concentration of studied compounds at which 50% inhibition of proliferation of tumorous is observed) of the evaluated compounds that inhibit the growth of 50% of cells in relation to a control. The cytotoxic activity of the compounds was determined using SRB, recommended by the US National Cancer Institute (USA). As the spectrum of 13 human origin neoplasms in bis-acridine screening studies, we used the following: HT 29 [CRC], HCT 116 [CRC], H 460 [lung cancer], MDA MB 231 [breast cancer], MCF-7 [breast cancer], UM UC3 [bladder cancer], PC 3 [prostate cancer], DU 145 [ prostate cancer], Panc-1 [pancreatic cancer], Mia Pa Ca 2 [pancreatic cancer], BXPC 3 [pancreatic cancer], AsPC1 [pancreatic cancer], Capan-2 [pancreatic cancer]. […] The DU-145 results were substantially a basis for selecting compounds and neoplasms for screening. The next neoplasms most sensitive to the cytotoxic activity of bis-acridines was the CRC HCT-116, as well as breast cancer MBA-MB-231. […] The cytotoxic activity of the remaining bis-acridines is significant or high (EC50 in the range from 1 to 0.04 μM). […] Panc-1, MiaPaCa-2 and Capan-2 are more sensitive, whereas for AsPC-1 and BxPC-3 this activity is at least an order of magnitude smaller.
# BxPC-3 = experiment: Cytotoxic activity in vitro, SRB; assay type: cell-based, human
# Method: as §5
# PANC-1 = experiment: Cytotoxic activity in vitro, SRB; assay type: cell-based, human
# Method: as §5
# DU-145 = experiment: Cytotoxic activity in vitro, SRB; assay type: cell-based, human
# Method: as §5
# HCT-116 = experiment: Cytotoxic activity in vitro, SRB; assay type: cell-based, human
# Method: as §5
# MiaPaCa-2 = experiment: Cytotoxic activity in vitro, SRB; assay type: cell-based, human
# Method: as §5
# MDA-MB-231 = experiment: Cytotoxic activity in vitro, SRB; assay type: cell-based, human
# Method: as §5
# UM-UC-3 = experiment: Cytotoxic activity in vitro, SRB; assay type: cell-based, human
# Method: as §5
# H-460 = experiment: Cytotoxic activity in vitro, SRB; assay type: cell-based, human
# Method: as §5
# AsPC-1 = experiment: Cytotoxic activity in vitro, SRB; assay type: cell-based, human
# Method: as §5
# Capan-2 = experiment: Cytotoxic activity in vitro, SRB; assay type: cell-based, human
# Method: as §5
# PC-3 = experiment: Cytotoxic activity in vitro, SRB; assay type: cell-based, human
# Method: as §5
# MCF-7 = experiment: Cytotoxic activity in vitro, SRB; assay type: cell-based, human
# Method: as §5
# AsPC 1 = experiment: Anti-neoplasmic activity against xenograft in hairless mice; assay type: in vivo
# Method: as §1, §2, §3, §4
# BXPC 3 = experiment: as above; assay type: in vivo
# Method: as §1, §2, §3, §4
# DU 145 = experiment: as above; assay type: in vivo; conditions: series 18, i.v., single 2 mg/kg, total 16 mg/kg, day 33
# Method: as §1, §2, §3, §4
# Mia Pa Ca 2 = experiment: as above; assay type: in vivo; conditions: series 28, i.v.
# Method: as §1, §2, §3, §4
SMILES,EC50 (BxPC-3) [nM],EC50 (PANC-1) [nM],EC50 (DU-145) [nM],EC50 (HCT-116) [nM],EC50 (MiaPaCa-2) [nM],EC50 (MDA-MB-231) [nM],EC50 (UM-UC-3) [nM],EC50 (AsPC-1) [nM],EC50 (Capan-2) [nM],EC50 (MCF-7) [nM],further results
"Cc1ccc([N+](=O)[O-])c2c(NCCCN3CCN(CCCNc4ccc5ncn6c7ccc(O)cc7c(=O)c4c56)CC3)c3ccccc3nc12 [C-2025, 1-[3-(8-hydroxy-imidazo[4,5,1-de]-acridin-6-on-5-yl)aminopropyl]-4-[3′-(4′-methyl-1′-nitroacridin-1-yl)-aminopropyl]piperazine]",354,42,67,51,38,17,35,343,68,244,"TGI [%] [100 − (ΔVT/ΔVC × 100] (PANC 1; series 20, i.v., single 20 mg/kg, total 160 mg/kg, day 26, *at least half of animals did not survive): 61* %; TGI [%] [100 − (ΔVT/ΔVC × 100] (HCT 116; series 7, i.v., single 20 mg/kg, total 120 mg/kg, day 15): 4%; TGI [%] [100 − (ΔVT/ΔVC × 100] (MDA MB 231; series 19, i.v., single 5 mg/kg, total 40 mg/kg, day 39): 12%; EC50 (HT-29): 237 nM; EC50 (H-460): 74 nM; EC50 (PC-3): 130 nM"
"Cc1ccc([N+](=O)[O-])c2c(NCCCN(C)CCCNc3ccc([N+](=O)[O-])c4[nH]c5ccccc5c(=O)c34)c3ccccc3nc12 [C-2029, 9-{N-[(4-nitro-9(10H)acridono-1-yl)aminopropyl]-N-methylaminopropylamino}-4′-methyl-1′-nitroacridine]",,110,44,74,,,54,,,,"TGI [%] [100 − (ΔVT/ΔVC × 100] (HCT 116; series 8, i.p., single 20 mg/kg, total 100 mg/kg, day 23): 52%; EC50 (HT-29): 230 nM; EC50 (H-460): 55 nM"
"O=c1c2ccccc2[nH]c2c([N+](=O)[O-])ccc(NCCNCCNCCNc3c4ccccc4nc4cccc([N+](=O)[O-])c34)c12 [C-2033, 9-[N-(4-nitro-9(10H)acridono-1-yl)-aminoethylaminoethylamino-ethylamino]-1′-nitroacridine]",,38,10,19,48,32,15,,,72,"TGI [%] [100 − (ΔVT/ΔVC × 100] (HCT 116; series 8, i.p., single 3 mg/kg, total 21 mg/kg, day 23): 37%; EC50 (PC-3): 32 nM"
"O=c1c2ccccc2n2cnc3ccc(NCCCN4CCN(CCCNc5c6ccccc6nc6cccc([N+](=O)[O-])c56)CC4)c1c32 [C-2041, 1-[3-(imidazo[4,5,1-de]-acridin-6-on-5-yl)aminopropyl]-4-[3′-(1′-nitroacridin-1-yl)-aminopropyl]piperazine]",54,24,22,25,39,21,,69,32,82,"TGI [%] [100 − (ΔVT/ΔVC × 100] (AsPC 1; series 23, i.p., single 2 mg/kg, total 16 mg/kg, day 39): 29%; TGI [%] [100 − (ΔVT/ΔVC × 100] (PANC 1; series 17, i.v., single 2 mg/kg, total 16 mg/kg, day 60): 76%; TGI [%] [100 − (ΔVT/ΔVC × 100] (PANC 1; series 27, i.v., single 2 mg/kg, total 16 mg/kg, day 33): 83%; TGI [%] [100 − (ΔVT/ΔVC × 100] (PANC 1; series 32, i.v., single 1 mg/kg, total 16 mg/kg, day 33): 82%; TGI [%] [100 − (ΔVT/ΔVC × 100] (BXPC 3; series 21, i.v., single 2 mg/kg, total 16 mg/kg, day 44): 81%; TGI [%] [100 − (ΔVT/ΔVC × 100] (BXPC 3; series 33, i.v., single 2 mg/kg, total 16 mg/kg, day 32): 48%; TGI [%] [100 − (ΔVT/ΔVC × 100] (DU 145): 61%; TGI [%] [100 − (ΔVT/ΔVC × 100] (Mia Pa Ca 2; single 6 mg/kg, total 12 mg/kg, day 15, *at least half of animals did not survive): 38* %; TGI [%] [100 − (ΔVT/ΔVC × 100] (MDA MB 231; series 34, i.v., single 4 mg/kg, total 32 mg/kg, day 32): 53%"
"Cc1ccc([N+](=O)[O-])c2c(NCCCN(C)CCCNc3ccc4ncn5c6ccc(O)cc6c(=O)c3c45)c3ccccc3nc12 [C-2045, 9-{N-[(8-hydroxyimidazo[4,5,1-de]-acridin-6-on-5-yl)aminopropyl]-N-methylaminopropylamino}-4′-methyl-1′-nitroacridine]",169,216,59,40,59,52,,152,52,,"TGI [%] [100 − (ΔVT/ΔVC × 100] (PANC 1; series 20, i.v., single 10 mg/kg, total 40 mg/kg, day 32): 67%; TGI [%] [100 − (ΔVT/ΔVC × 100] (PANC 1; series 24, i.v., single 2 mg/kg, total 16 mg/kg, day 44): 82%; TGI [%] [100 − (ΔVT/ΔVC × 100] (PANC 1; series 26, i.v., single 10 mg/kg, total 80 mg/kg, day 56): 64%; TGI [%] [100 − (ΔVT/ΔVC × 100] (PANC 1; series 29, i.v., single 5 mg/kg, total 25 mg/kg, day 36): 25%; TGI [%] [100 − (ΔVT/ΔVC × 100] (BXPC 3; series 25, i.p., single 10 mg/kg, total 80 mg/kg, day 32): 77%; TGI [%] [100 − (ΔVT/ΔVC × 100] (Mia Pa Ca 2; single 5 mg/kg, total 28 mg/kg, day 33): 55%"
"COc1ccc2c(c1)c(=O)c1c(NCCCN3CCN(CCCNc4c5ccccc5nc5cccc([N+](=O)[O-])c45)CC3)ccc3ncn2c31 [C-2049, 1-[3-(8-methoxy-imidazo[4,5,1-de]-acridin-6-on-5-yl)aminopropyl]-4-[3′-(1′-nitroacridin-1-yl)-aminopropyl]piperazine]",75,40,21,28,36,38,,122,27,,"TGI [%] [100 − (ΔVT/ΔVC × 100] (AsPC 1; series 23, i.v., single 6 mg/kg, total 48 mg/kg, day 36, *at least half of animals did not survive): 32* %; TGI [%] [100 − (ΔVT/ΔVC × 100] (PANC 1; series 20, i.v., single 6 mg/kg, total 48 mg/kg, day 32): 63%; TGI [%] [100 − (ΔVT/ΔVC × 100] (PANC 1; series 27, i.v, single 2 mg/kg, total 16 mg/kg, day 47): 80%; TGI [%] [100 − (ΔVT/ΔVC × 100] (BXPC 3; series 21, i.v., single 6 mg/kg, total 40 mg/kg, day 34): 63%"
"Cc1ccc([N+](=O)[O-])c2c(NCCCN(C)CCCNc3ccc4ncn5c6ccccc6c(=O)c3c45)c3ccccc3nc12 [C-2053, 9-{N-[(imidazo[4,5,1-de]-acridin-6-on-5-yl)aminopropyl]-N-methylaminopropylamino}-4′-methyl-1′-nitroacridine]",224,98,65,65,87,,,176,,,"TGI [%] [100 − (ΔVT/ΔVC × 100] (PANC 1; series 24, i.v., single 15 mg/kg, total 120 mg/kg, day 37): 64%; TGI [%] [100 − (ΔVT/ΔVC × 100] (PANC 1; series 26, i.v., single 20 mg/kg, total 160 mg/kg, day 56): 69%; TGI [%] [100 − (ΔVT/ΔVC × 100] (BXPC 3; series 25, i.v., single 20 mg/kg, total 160 mg/kg, day 36): 84%; TGI [%] [100 − (ΔVT/ΔVC × 100] (BXPC 3; series 33, i.v., single 20 mg/kg, total 160 mg/kg, day 32, *at least half of animals did not survive): 47* %; TGI [%] [100 − (ΔVT/ΔVC × 100] (MDA MB 231; series 34, i.v., single 15 mg/kg, total 120 mg/kg, day 32): 62%"
